Consider one compound from patent US9988348B1, “Synthesis and antimicrobial use of a trithiocarbonate derivative” (KING SAUD UNIVERSITY, priority 2017, dated 2018).

The subject of this experiment is Cryptococcus neoformans Wild strain. The experiment can be described thus: disk diffusion assay, inhibition zone. The note with it: C. neoformasn; 4 mg/disk; soluble water compound 4. Format: cell-based. The protocol:
To evaluate antimicrobial activity of the compound 4, synthesized in our laboratory as novel anti-bacterial and anti-fungal agents, the inhibition zone diameter (mm) and the minimal inhibitory concentration were determined according to (Andrews 2001; Hudzicki 2009). The test carried out on several clinical microorganisms included Gram positive bacteria (Staphylococcus aureus ATCC and Streptococcus mutans ATCC 35668), Gram negative bacteria (Escherichia coli ATCC 25922, Salmonella typhimurium ATCC 14028 and Neisseria meningitides ATCC 1302); yeasts (Candid albicans ATCC 60193, Cryptococcus neoformans Wild strain and Candida parapsilosus ATCC 22019) and molds (Aspergillus fumigatus AUMC 8794, Penicillum chrysogenum AUMC 9476 and Fusarium sp.)
The clinical microorganisms were cultivated at least three times on suitable culture medium and incubating conditions before susceptibility test. The concentration of microbial inoculation suspensions in sterile sodium chloride solution (0.89%) were adjusted to 0.65 at 620 nm by spectrophotometer. […]
After that, the disks were dried at 25° C. under sterile conditions by safety biological cabinet. A Mueller-Hinton agar (MHA) (Scharlau Microbiogy, Spain) and a potato dextrose agar (PDA) (Scharlau, Spain) were used to perform antibacterial and antifungal test respectively. The media were prepared according to manufacturer's guidelines. To prepare one liter of MHA and one liter of PDA, 21 grams of MHA and 39 grams of PDA were dissolved in one liter of sterile distilled water, followed by sterilization at 121° C. for 15 minutes by an autoclave (HL-321, Taiwan). The sterilized media were poured in sterile plastic Petri dishes at 50° C. The plates were allowed to let the medium solidify at room temperature. 0.1 ml of microbial inoculation suspensions were spread on dried surface of medium and were kept at 25° C. for 5-10 minutes. The compound 4 and standard antimicrobial drugs discs (Table 1) were dispensed on the surface of inoculated media. The tested bacteria and fungi were incubated at 37±1° C. for 19-22 hours and at 25±1 for 48-72 hours respectively. After the incubation, the diameter of inhibition zone (millimeter) resulting from the biological activity of compound were recorded.

Where “and” joins values, the source holds several entries; their conditions need not be identical. Identical values can stand only once.

With `CCOC(=O)CSC(=S)SCC(=O)OCC` [Compound 4, diethyl 2,2′-(thiocarbonylbis(sulfanediyl))diacetate], the Inhibition zone diameter was 30 mm and 30 ± 1 B mm.
